Literature values as cited in US7638678B2, “Animal model for perimenopause and menopause and methods of inducing ovarian failure” (The Arizona Board of Regents, priority 2002, dated 2009).

Key:
[1] = test system: ovarian follicles; conditions: B6C3F1 mice dosed with VCH; cited from earlier work
[2] = i.p. minipumps versus injection; cited from earlier work

Row | Compound | Premature ovarian failure in long term studies [1] | Decrease of the effective dose by continuous administration [2]
1 | C=CC1CC=CCC1 (centres unmarked) [VCH, 4-vinylcyclohexene] | premature ovarian failure occurred within a year | –
2 | endostatin | – | 8-10 fold
